Experimental findings from ChEMBL document CHEMBL5108032, “Innovation Experiences from Africa-Led Drug Discovery at the Holistic Drug Discovery and Development (H3D) Centre” (ACS Med Chem Lett, 2022) are described below.

In brackets after ≈: the same amount, converted by molar mass.

The subject of this assay is Mycobacterium tuberculosis. As to the kind of experiment: Antimycobacterial activity against Mycobacterium tuberculosis H37Rv assessed as inhibition of visible growth incubated for 7 days. It is filed as functional. As to conditions: 168 h, time 7 day.

Usually MIC stands for the smallest concentration in the dilution series that meets the test's criterion for growth inhibition. For the compound `Cc1nnc(-c2noc3c(F)c4c(cc23)CC2(C(=O)NC(=O)NC2=O)[C@H]2[C@H](C)O[C@H](C)CN42)o1`, the MIC came out at 1.7 µM (≈ 0.8 µg/mL).
